Several values for one entry are separate records, joined by “and”; a condition that tells them apart may be missing. Equal values may be shown once.
These compounds were tested on anti-pregabalin antibody (assay: Specificity of the homogeneous enzyme immunoassay (cross-reactivity)). Conditions: compound at 200 μg/mL added to pooled pregabalin-free human urine; Siemens Viva-E System.
Assay type: binding, rabbit
Text: Antibodies obtained using any of the disclosed techniques are screened or purified not only for their ability to react with pregabalin, but for a low cross-reactivity with potential interfering substances. “Cross-reactivity” may be determined in a quantitative immunoassay by establishing a standard curve using known dilutions of the target analyte, pregabalin. […] The cross-reactivity is the apparent concentration divided by the actual concentration multiplied by 100. […] Furthermore, the cross-reactivity can be determined in the same type of immunoassay in which the antibody will ultimately be used.
An analyzer (instrument) useful to set up the assay is Siemens Viva-E. The Siemens Viva-E® System is an automated biochemistry analyzer used by medical and toxicology laboratories to process biological fluid specimens, such as urine, cerebrospinal fluid, and most commonly, blood. […] The enzyme conjugate activity decreases upon binding to the antibody. The enzyme conjugate, which is not bound to the antibody, catalyzes the oxidation of glucose-6-phosphate. The oxidation of glucose-6-phosphate is coupled with the reduction of NAD^+ to NADH, which can be measured at 340 nm. The change in the absorbance at 340 nm can be measured spectrophotometrically. The pregabalin concentration in a urine specimen can be measured in terms of G6PDH activity. The increase in the rate at 340 nm is due to the formation of NADH and is proportional to the enzyme conjugate activity. An assay curve can be generated using pregabalin spiked into pooled human pregabalin-free urine. The assay rate increases with increasing the concentration of free drug in the sample.
The specificity of the immunoassay was evaluated by adding a compound to pooled pregabalin-free human urine samples fortified with EDTA, and NaN3 preservative and testing the samples and determining the percent cross-reactivity. Separate stock solutions of each compound were prepared in methanol. […] The percentage cross-reactivity was calculated for each compound tested.

| SMILES | % Crossreactivity [%] |
| --- | --- |
| NCC1(CC(=O)O)CCCCC1 [Gabapentin] | 0.019 |
| C[C@H](N)C(=O)O [L-Alanine] | 0.004 |
| N=C(N)NCCC[C@H](N)C(=O)O [L-Arginine] | 0.006 |
| NC(=O)C[C@H](N)C(=O)O [L-Asparagine] | 0.004 |
| N[C@@H](CC(=O)O)C(=O)O [L-Aspartic Acid] | 0.004 |
| N[C@@H](CS)C(=O)O [L-Cysteine] | 0.005 |
| N[C@@H](CCC(=O)O)C(=O)O [L-Glutamic Acid] | 0.006 |
| NC(=O)CC[C@H](N)C(=O)O [L-Glutamine] | 0.004 |
| NCC(=O)O [L-Glycine] | 0.005 |
| N[C@@H](Cc1c[nH]cn1)C(=O)O [L-Histidine] | 0.007 |
| CC[C@H](C)[C@H](N)C(=O)O [L-Isoleucine] | 0.008 |
| CC(C)C[C@H](N)C(=O)O [L-Leucine, L-leucine] | 0.038 |
| NCCCC[C@H](N)C(=O)O [L-Lysine] | 0.001 |
| CSCC[C@H](N)C(=O)O [L-Methionine] | 0.031 |
| N[C@@H](Cc1ccccc1)C(=O)O [L-Phenylalanine] | 0.006 |
| O=C(O)[C@@H]1CCCN1 [L-Proline] | 0.004 |
| N[C@@H](CO)C(=O)O [L-Serine] | 0.005 |
| C[C@@H](O)[C@H](N)C(=O)O [L-Threonine] | 0.005 |
| N[C@@H](Cc1c[nH]c2ccccc12)C(=O)O [L-Tryptophan] | 0.006 |
| N[C@@H](Cc1ccc(O)cc1)C(=O)O [L-Tyrosine] | 0.004 |
| CC(C)[C@H](N)C(=O)O [L-Valine] | 0.006 |

Each compound was assayed on antibody #10930 (assay: not given). Conditions: not given.
Assay type: binding, rabbit

| SMILES | Reaction Rate (mA/min) Average of Duplicates |
| --- | --- |
| CC(C)C[C@H](CN)CC(=O)O [Pregabalin, (S)-3-(aminomethyl)-5-methylhexanoic acid] | 432.5 mA/min and 344.0 mA/min and 381.5 mA/min and 407.0 mA/min |

Reference: US12656356B2, “Pregabalin immunoassays” (ARK Diagnostics, Inc., priority 2015, dated 2026)
